From patent US20210401931A1, “METHODS AND MATERIALS FOR TREATING CANCER” (Mayo Foundation for Medical Education and Research, priority 2018, published 2021) come the findings set out here.

For test [1], the system named is MAP3K7- and CHD1-KD PC-3 cells. Kind of test: MTS viability / IC50 analysis in MAP3K7- and CHD1-KD PC-3 cells. In kind it is cell-based, human. The note with it: MTS assay, log 2(IC50ratio). On the procedure:
FIGS. 14A-G. RB functions as a negative regulator of NFκB signaling. (A) PC-3 infected with lentivirus for indicated shRNAs were treated with different chemicals and cells viability was measured by MTS assay. Heat map showing the normalized IC50 ratio (log 2(IC50ratio)). (B-D) PC-3 cells infected with lentivirus expressing indicated shRNAs were harvested for western blots (B), FACS (C), and RT-qPCR (D). All data were shown as mean values±SD (n=3). ns, not significant, * P<0.05, ** P<0.01, *** P<0.001. (E, F) PC-3 cells infected with indicated lentivirus were injected s.c. into NSG mice, and tumors were harvested and photographed at day 21 (E). Data in (F) were shown as means±SD (n=5). ns, not significant, * P<0.05. (G) A model depicting RB functions as a negative regulator of NFκB (p65/p50), providing an explanation of the finding that depletion of RB offsets the death of PTEN-null cells induced by either MAP3K7 or CHD1 deletion.
MAP3K7 or CHD1 was knocked down (KD) in PTEN-null PC-3 cells followed by treatment with an array of small molecule inhibitors for a number of cancer relevant pathways.
(In general: Tetrazolium assays rely on reduction of a dye to a coloured formazan, in cell work by metabolically active cells.)

For another test, the system named is RB-p65 interaction. Kind of test: Co-immunoprecipitation of RB and p65 in PC-3 cells. As to conditions: TNFα 20 ng/mL, 24 hours. Type of test: cell-based, human. An excerpt: FIGS. 2A-H. RB phosphorylation by CDK4 enhances RB interaction with NFκB protein p65. (A) Western blot analysis of reciprocal co-immunoprecipitation of endogenous RB1 and p65 proteins in PC-3 cells. (B) Schematic diagram depicting a set of p65 recombinant protein constructs. Western blot analysis of RB proteins in PC-3 cells whole cell lysate pulled down by GST or GST-p65 recombinant proteins. Stars indicated expected molecular weight. (C) Western blot analysis of RB proteins in PC-3 whole cell lysate pulled down by GST or GST-p65 recombinant proteins. Cell lysates were treated with or without λ, phosphatase before GST-pull down. (D) Western blot analysis of PC-3 whole cell lysates (WCL) and co-IP samples. Cell lysates were treated with or without λ, phosphatase before IP. (E) Western blot analysis of WCL and co-IP samples in DU145 cells 24 hours after transfected with indicated plasmids. (F) Western blot analysis of WCL and co-IP samples in PC-3 cells. Cells were treated with or without palbociclib (5 μM) for 24 hours before IP. […] Western blot bands of co-IPed RB protein were quantified by ImageJ software and normalized to the quantified value of IP-ed RB in cells without TNFα treatment. […] Western blot bands of p65 protein were quantified by ImageJ software and normalized to the quantified value of p65 protein in cell lysate without immuno-depletion (preimmune sample). […]

A further test relates to p65-IκBα interaction. Kind of test: Co-immunoprecipitation of p65 and IκBα in PC-3 cells. Type of test: cell-based, human. As to conditions: TNFα 20 ng/mL, 24 hours.
Test [2] relates to NF-κB site of the PD-L1 promoter. Kind of test: EMSA with biotin-labeled PD-L1-prom oligonucleotide and PC-3 nuclear extracts. Type of test: cell-based, human. The note with it: PC-3 nuclear extract. An excerpt:
FIGS. 11A-H. (A) Heatmap showing differentially expressed genes (FDR<0.01) between palbociclib treatment versus DMSO and knockdown RB1 versus control. Gene expression values (FPKM) were Z-score normalized. FPKM, Fragments Per Kilobase of transcript per Million mapped reads. (B) UCSC Genome Browser screenshots of meta-analysis of published RB ChIP high throughput sequencing (ChIP-seq) data showing RB binding to CD274 (PD-L1) gene locus in K562 cells. PD-L1-prom oligonucleotide DNA containing NF-κB binding sequence was shown in the RB binding peak in the PD-L1 gene, the corresponding mutant PD-L1-prom oligonucleotide DNA was shown below. FIG. 11B discloses SEQ ID NOS 279-280, respectively, in order of appearance. (C) ChIP-qPCR analysis of RB binds at the PD-L1 promotor in PC-3 cells. All data were shown as mean values±SD (n=3). *** P<0.001. (D) ChIP-reChIP analysis examining the co-localization of p65 and RB in the PD-L1 promoters. All data were shown as mean values±SD (n=3). ** P<0.01. […]
FIGS. 21A-N. Effect of RB depletion, cell cycle, and RB-N S249/T252 phospho-mimicking peptide on PD-L1 expression in cell lines of various cancer types. […] 48 hours after infection, PD-L1 expression was determined by western blotting (A), RT-qPCR (B), and FACS (C). […] (D) Pd-l1 protein and mRNA levels were determined by western blotting in primary SKO and DKO mouse prostate tumor cell lines. […]
For orientation: A gel shift assay detects complexes by their altered migration in electrophoresis.

Test [3] deals with T1, p65 NFκB protein (human, UniProt Q04206 1-551).
T1 construct: which one stood in the assay is told under assay; also called endogenous p65; in vitro transcribed and translated p65 (pCMV4 p65)
T1 sequence (Q04206 whole entry): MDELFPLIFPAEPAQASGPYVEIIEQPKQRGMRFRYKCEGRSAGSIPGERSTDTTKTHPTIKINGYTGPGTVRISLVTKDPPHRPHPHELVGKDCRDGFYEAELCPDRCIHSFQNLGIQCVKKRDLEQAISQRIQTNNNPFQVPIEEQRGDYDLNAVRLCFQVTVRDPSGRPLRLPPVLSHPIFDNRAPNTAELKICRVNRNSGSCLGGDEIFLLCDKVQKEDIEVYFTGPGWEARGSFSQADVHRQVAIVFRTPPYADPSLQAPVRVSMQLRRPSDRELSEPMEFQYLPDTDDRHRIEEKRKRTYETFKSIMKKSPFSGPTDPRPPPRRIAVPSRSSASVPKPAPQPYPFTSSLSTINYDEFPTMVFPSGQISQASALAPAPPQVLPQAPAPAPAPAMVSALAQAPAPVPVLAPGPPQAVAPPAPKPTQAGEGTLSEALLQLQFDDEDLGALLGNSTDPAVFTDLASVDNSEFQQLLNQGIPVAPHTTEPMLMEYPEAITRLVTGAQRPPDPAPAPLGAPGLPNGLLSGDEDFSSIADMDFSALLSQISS
Kind of test: GST pull down from PC-3 whole cell lysate, western blot (FIG. 2H). Here is the method: (§1) Cells were lysed with IP buffer (50 mM Tris-HCl, pH 7.4, 150 mM NaCl, 1% Triton X-100, 1% sodium deoxycholate, and 1% protease inhibitor cocktails) on ice for more than 30 minutes. GST fusion proteins were immobilized on glutathione-Sepharose beads (GE Healthcare Lifesciences). After washing with lysis buffer, the beads were incubated with cell lysates overnight at 4° C. overnight. The beads were then washed six times with binding buffer and re-suspended in sample buffer. The bound proteins were subjected to western blotting analysis.

Test [4] addresses T1, p65 NFκB protein. The experiment in a line: GST pull down from PC-3 whole cell lysate, western blot. Here is the method:
as §1

Entries after “also recorded” stand apart in the source; their conditions may differ.

In the case of `Cc1ccc(NCCCc2ccccc2)c(N)c1` [JSH-23], the “viability of MAP3K7- and CHD1-KD PC-3 cells (normalized IC50 ratio)” value in test [1] is “further increased viability loss”.

Consider TNFα, for which, in the test on RB-p65 interaction, the “p65-RB interaction in the nucleus” value is “increased”. The p65-IκBα interaction result in the test on p65-IκBα interaction is listed as “decreased”. Also, in test [2], the “DNA-protein complex (DPC) level at PD-L1-Prom probe” value is on record as “largely enhanced; also recorded: further enhanced”.

B1: GST-RB-C (other, human, UniProt P06400 793-928, looked up)
chain: PSSPLRIPGGNIYISPLKSPYKISEGLPTPTKMTPRSRILVSIGESFGTSEKFQKINQMVCNSDRVLKRSAEGSNPPKPLKKLRFDIEGSDEADGSKHLPGESKFQQKLAEMTSTRTRMQKQKMNDSMDTSNKEEK
notes: domain: RB-C; not shown: glutathione S-transferase (GST) tag of the fusion
For the molecule B1, in the test with p65 NFκB protein [3], the binding result is reported as “no binding”.

B2: GST-RB-M (other, human, UniProt P06400 380-792, looked up)
chain: NTIQQLMMILNSASDQPSENLISYFNNCTVNPKESILKRVKDIGYIFKEKFAKAVGQGCVEIGSQRYKLGVRLYYRVMESMLKSEEERLSIQNFSKLLNDNIFHMSLLACALEVVMATYSRSTSQNLDSGTDLSFPWILNVLNLKAFDFYKVIESFIKAEGNLTREMIKHLERCEHRIMESLAWLSDSPLFDLIKQSKDREGPTDHLESACPLNLPLQNNHTAADMYLSPVRSPKKKGSTTRVNSTANAETQATSAFQTQKPLKSTSLSLFYKKVYRLAYLRLNTLCERLLSEHPELEHIIWTLFQHTLQNEYELMRDRHLDQIMMCSMYGICKVKNIDLKFKIIVTAYKDLPHAVQETFKRVLIKEEEYDSIIVFYNSVFMQRLKTNILQYASTRPPTLSPIPHIPRSPYKF
notes: domain: RB-M; not shown: glutathione S-transferase (GST) tag of the fusion
On to B2, for which the binding result with p65 NFκB protein [4] is reported as “no binding”.
